# Article PMC9145865, “Effects of Rare Phytocannabinoids on the Endocannabinoid System of Human Keratinocytes” (International Journal of Molecular Sciences, 2022)
# Columns and labels:
# [1] = system: NAPE-PLD; assay: NAPE-PLD activity assay in homogenates of treated cells; type: cell-based, human; details: HaCaT cells, half-IC50 amount, 24 h, vs. control
# Experimental: NAPE-PLD: The HaCaT cells were seeded into 6-well plates at a density of 4 × 10^4 per well, incubated overnight and then treated with the selected pCBs (6.0 µM of CBG, 4.0 µM of CBC, 9.0 µM of THCV and 13.0 µM of CBGA) for 24 h. The cell pellets were collected and NAPE-PLD activity was determined in the homogenates of the cells after 24 h of treatment with each pCB. Then, the homogenates were incubated in a reaction mixture that contained 50 mM of Tris–HCl, 0.05% Triton X-100 pH 8.0 and 10 µM of fluorogenic substrate PED6 (N-((6-(2,4-Dinitrophenyl)amino)hexanoyl)-2(4,4-Difluoro-5,7-Dimethyl-4-Bora-3a,4a-Diaza-s-Indacene-3-Pentanoyl)-1-Hexadecanoyl-sn-Glycero-3 Phosphoethanolamine, Triethylammonium Salt). The homogenates were pre-incubated with the specific NAPE-PLD inhibitor ARN19874 at 3.8 mM [65] (Cayman Chemical, Ann Arbor, MI, USA) for 30 min at room temperature in order to fully erase the enzyme activity as a control. Fluorescence values were measured with excitation at λ = 485–488 nm and emission at λ = 530 nm at 37 °C by means of continuity kinetics at 30-sec intervals for 30 min in an Enspire multimode plate reader (Perkin Elmer, Waltham, MA, USA), as reported in [66]. NAPE-PLD activity was expressed as florescence intensity (arbitrary units, AU) per min per mg of protein.
# [2] = system: transformed human keratinocytes; set-up: method as in PMID 17157480; details: hyperproliferative conditions; ref [46]; cited from earlier work
SMILES,activity of NAPE-PLD [1],proliferation of transformed human keratinocytes [2]
"CCCCCc1cc(O)c(C/C=C(\C)CCC=C(C)C)c(O)c1C(=O)O [CBGA, cannabigerolic acid]",significantly increased,
"CCCCCc1cc(O)c(C/C=C(\C)CCC=C(C)C)c(O)c1 [CBG, cannabigerol]",,inhibit the proliferation
